Data published in article PMC10406613, “Endocytic myosin-1 is a force-insensitive, power-generating motor” (The Journal of Cell Biology, 2023).

What was measured:
[1] = molecular target: T1, unphosphorylated Myo5 (actoMyo5) (Saccharomyces cerevisiae, UniProt Q04439); experiment: stopped-flow light scattering, ADP release from ADP-saturated actoMyo5 mixed with ATP; format: binding; set-up: motor domain plus both IQ motifs, truncated at Gly763, C-terminal AviTag-TEV-His9 kept; co-expressed with She4 in S. cerevisiae D1074; lambda phosphatase-treated (unphosphorylated at TEDS site S357); Cmd1 light chain in excess; with Calmodulin; Actin, alpha skeletal muscle (rabbit, Oryctolagus cuniculus); settings: ADP dissociation rate constant, 100 µM ADP preincubated with 200 nM actoMyo5, then 2.5 mM ATP, KMg25 buffer pH 7, 20°C
From the text: stopped-flow light scattering, ADP release from ADP-saturated actoMyo5 mixed with ATP on unphosphorylated Myo5 (actoMyo5)

[2] = molecular target: T2, phosphorylated Myo5 (actoMyo5) (Saccharomyces cerevisiae, UniProt Q04439); experiment: as above; format: binding; set-up: motor domain plus both IQ motifs, truncated at Gly763, C-terminal AviTag-TEV-His9 kept; co-expressed with She4 in S. cerevisiae D1074; phosphorylated at TEDS site S357 by Pak1; Cmd1 light chain in excess; with Calmodulin; Actin, alpha skeletal muscle (rabbit, Oryctolagus cuniculus); settings: 100 µM ADP preincubated with 200 nM actoMyo5, then 2.5 mM ATP, KMg25 buffer pH 7, 20°C, phosphorylated at S357
From the text: stopped-flow light scattering, ADP release from ADP-saturated actoMyo5 mixed with ATP on phosphorylated Myo5 (actoMyo5)

[3] = molecular target: T1, unphosphorylated Myo5 (actoMyo5); experiment: biochemical
From the text: stopped-flow light scattering, ATP-induced dissociation of actoMyo5, hyperbolic fit on unphosphorylated Myo5 (actoMyo5)

[4] = molecular target: T2, phosphorylated Myo5 (actoMyo5); settings: apparent second-order rate constant of ATP binding to nucleotide-free actoMyo5 (actin-bound); MgATP, KMg25 buffer pH 7, 20°C; phosphorylated at S357
From the text: stopped-flow light scattering, ATP-induced dissociation of actoMyo5, linear fit on phosphorylated Myo5 (actoMyo5)

T1 sequence (Q04439 whole entry, looked up, the tested form may be a part): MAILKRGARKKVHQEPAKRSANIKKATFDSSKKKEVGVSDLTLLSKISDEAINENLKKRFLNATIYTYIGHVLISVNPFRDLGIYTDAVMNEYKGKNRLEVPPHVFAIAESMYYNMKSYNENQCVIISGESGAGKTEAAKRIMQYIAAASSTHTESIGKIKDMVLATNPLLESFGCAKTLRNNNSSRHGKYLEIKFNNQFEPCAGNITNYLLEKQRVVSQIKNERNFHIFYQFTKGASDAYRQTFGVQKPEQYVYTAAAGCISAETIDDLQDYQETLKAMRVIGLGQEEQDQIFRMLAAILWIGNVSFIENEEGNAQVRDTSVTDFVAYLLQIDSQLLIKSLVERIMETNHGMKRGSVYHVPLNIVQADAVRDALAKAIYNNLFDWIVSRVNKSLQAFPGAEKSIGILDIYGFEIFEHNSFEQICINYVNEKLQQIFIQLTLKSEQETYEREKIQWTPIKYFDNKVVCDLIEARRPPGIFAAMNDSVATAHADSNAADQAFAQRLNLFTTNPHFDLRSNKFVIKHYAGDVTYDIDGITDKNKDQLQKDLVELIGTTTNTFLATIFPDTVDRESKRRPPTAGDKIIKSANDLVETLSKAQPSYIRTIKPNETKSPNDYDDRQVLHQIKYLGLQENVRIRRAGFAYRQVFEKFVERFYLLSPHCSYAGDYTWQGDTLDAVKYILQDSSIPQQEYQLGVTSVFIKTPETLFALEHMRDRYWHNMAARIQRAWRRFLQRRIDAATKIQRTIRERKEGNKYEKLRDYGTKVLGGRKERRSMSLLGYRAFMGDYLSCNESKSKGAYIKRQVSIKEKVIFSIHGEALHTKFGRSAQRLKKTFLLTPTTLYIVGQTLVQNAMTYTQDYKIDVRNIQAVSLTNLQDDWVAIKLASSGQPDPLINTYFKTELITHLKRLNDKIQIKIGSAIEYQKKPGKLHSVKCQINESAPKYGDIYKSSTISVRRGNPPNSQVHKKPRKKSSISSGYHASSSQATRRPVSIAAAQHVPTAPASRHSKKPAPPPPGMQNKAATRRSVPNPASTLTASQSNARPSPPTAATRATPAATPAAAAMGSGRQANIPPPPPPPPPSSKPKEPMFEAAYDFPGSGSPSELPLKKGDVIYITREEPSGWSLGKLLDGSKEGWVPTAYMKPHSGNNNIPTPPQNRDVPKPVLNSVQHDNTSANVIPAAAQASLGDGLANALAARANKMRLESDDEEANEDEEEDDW
T2 sequence (Q04439 whole entry, looked up, the tested form may be a part): as above

Nc1ncnc2c1ncn2[C@@H]1O[C@H](COP(=O)(O)OP(=O)(O)O)[C@@H](O)[C@H]1O [ADP]
ADP release rate constant [1]: 107 (±5.9) s^−1
ADP dissociation rate constant [2]: 74 ± 2.0 s⁻¹

Nc1ncnc2c1ncn2[C@@H]1O[C@H](COP(=O)(O)OP(=O)(O)OP(=O)(O)O)[C@@H](O)[C@H]1O [ATP]
Kd [3]: 167 µM
Phosphorylated Myo5 [4]: 0.39 (±0.017) µM^−1 s^−1
